Source: patent US20140213538A1, “LYSOPHOSPHATIDIC ACID RECEPTOR ANTAGONISTS” (InterMune, Inc., priority 2013, published 2014)

Key:
Assay type in all cases: cell-based
LPA1 [1] = target: T1, LPA1 (Homo sapiens, UniProt Q92633); test: Ca Flux LPA1 assay; set-up: the full-length cDNA for human LPA1 is obtained by PCR of the reverse transcription reaction; expressed in transfected cells
LPA/S1P GPCR of interest = target: T2, LPA/S1P GPCR of interest (Homo sapiens, UniProt Q92633); test: Beta-Arrestin based assay (PathHunter)
T2 construct: host or cells: CHO
Outline: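 EA Parental CHO cells (DiscoverX) were transfected with FuGENE (Roche) using CMV promoter-driven DNA constructs encoding the LPA/S1P GPCR of interest fused to a ProLink tag. Beta-arrestin recruitment in agonist mode was assessed 24-48 hrs later with PathHunter kits. Tests ran in quadruplicate in white 384 well plates, and end point luminescence was fit to a 4 parameter logistic function.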

LPA1 [2] = target: T1, LPA1; test: LPA1 Migration Assay (Oris); set-up: host or cells: primary fibroblasts (lung, dermal), HFL-1, 3T3 and CHO cells expressing LPA1R; conditions: read-out: Cell Migration EC50
Outline: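 Oris exclusion-zone migration of LPA1R-expressing cells (primary lung/dermal fibroblasts, HFL-1, 3T3, CHO), Cell Tracker Green-loaded and serum-starved 12-24 h, toward LPA or serum. Fixed cells in the detection zone were counted by high-content imaging, and cell number vs. concentration was fitted to a 4-parameter logistic.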

T1 sequence (Q92633 whole entry): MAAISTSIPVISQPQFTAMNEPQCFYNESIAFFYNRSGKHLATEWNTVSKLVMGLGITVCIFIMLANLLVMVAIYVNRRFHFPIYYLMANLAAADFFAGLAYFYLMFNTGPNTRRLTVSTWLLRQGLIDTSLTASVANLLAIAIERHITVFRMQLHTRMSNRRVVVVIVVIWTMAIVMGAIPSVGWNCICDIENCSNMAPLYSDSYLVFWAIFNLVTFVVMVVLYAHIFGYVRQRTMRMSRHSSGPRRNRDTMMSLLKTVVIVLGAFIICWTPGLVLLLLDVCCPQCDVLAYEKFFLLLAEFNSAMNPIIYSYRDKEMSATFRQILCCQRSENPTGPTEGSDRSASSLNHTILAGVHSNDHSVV
T2 sequence (Q92633 whole entry): as above

Compound | IC50 (LPA1 [1]) [nM] | EC50 (LPA/S1P GPCR of interest) [nM] | EC50 (LPA1 [2]) [nM]
C[C@@H](OC(=O)Nc1c(-c2cc3sc(C#CC4(C(=O)O)CC4)cc3s2)cnn1C)c1ccccc1 [IT126] | < 50 | < 50 | 50 to 500
Cc1noc(-c2ccc(-c3ccc(Oc4c(F)cccc4C(=O)O)cc3)cc2)c1NC(=O)O[C@H](C)c1ccccc1 [IT375] | 50 to 500 | < 50 | 50 to 500
C[C@@H](OC(=O)Nc1c(-c2ccc(-c3cc(F)c(Oc4ncccc4C(=O)O)c(F)c3)cc2)cnn1C)c1ccccc1 [IT308] | 50 to 500 | < 50 | < 50
Cc1noc(-c2ccc(-c3cc(F)c(Oc4ccccc4C(=O)O)c(F)c3)cc2)c1NC(=O)O[C@H](C)c1ccccc1Cl [IT449] | > 500 | < 50 | < 50
Cc1noc(-c2ccc(-c3nc4sc(C5(C(=O)O)CC5)cc4s3)cc2)c1NC(=O)O[C@H](C)c1ccccc1 [IT111] | 50 to 500 | < 50 | 50 to 500
Cc1nnn(-c2ccc(-c3cc(F)c(Oc4ccccc4C(=O)O)c(F)c3)cc2)c1NC(=O)O[C@H](C)c1ccccc1 [IT408] | < 50 | < 50 | < 50
Cc1noc(-c2ccc(-c3ccc(S(C)(=O)=O)cc3)cc2)c1NC(=O)O[C@H](C)c1ccccc1 [IT124] | > 500 | > 500 | 50 to 500
Cc1nsc(-c2cc3sc(-c4ccc(C5(C(=O)O)CC5)cc4)cc3s2)c1NC(=O)O[C@H](C)c1ccccc1 [IT120] | > 500 | < 50 | 50 to 500
C[C@@H](OC(=O)Nc1c(-c2cc(Cl)c(-c3cc4sc(C5(C(=O)O)CC5)cc4s3)cc2F)cnn1C)c1ccccc1 [IT282] | 50 to 500 | < 50 | < 50
C[C@@H](OC(=O)Nc1c(-c2cc3sc(-c4cc(F)c(C5(C(=O)O)CC5)c(F)c4)cc3s2)nnn1C)c1ccccc1 [IT262] | 50 to 500 | < 50 | 50 to 500
Cc1noc(-c2ccc(-c3cc(F)c(Oc4ccccc4C(=O)O)c(F)c3)cc2)c1NC(=O)O[C@H](C)c1ccccc1 [IT316] | 50 to 500 | < 50 | < 50
C[C@@H](OC(=O)Nc1ccncc1C#Cc1cc2sc(C3(C(=O)O)CC3)cc2s1)c1ccccc1 [IT106] | < 50 | 50 to 500 | > 500
C[C@@H](OC(=O)Nc1ocnc1C#Cc1cc2sc(C3(C(=O)O)CC3)cc2s1)c1ccccc1 [IT125] | < 50 | > 500 | 50 to 500
C[C@@H](OC(=O)Nc1c(-c2ccc(-c3cc(F)c(Oc4ccncc4C(=O)O)c(F)c3)cc2)nnn1C)c1ccccc1 [IT453] | 50 to 500 | < 50 | < 50
C[C@@H](OC(=O)Nc1c(-c2cc3sc(-c4cc(F)c(C5(C(=O)O)CC5)c(F)c4)cc3s2)cnn1C)c1ccccc1 [IT261] | > 500 | < 50 | 50 to 500
Cc1noc(-c2ccc(-c3cc(F)c(Oc4ccncc4C(=O)O)c(F)c3)cc2)c1NC(=O)O[C@H](C)c1ccccc1 [IT300] | < 50 | < 50 | < 50
C[C@@H](OC(=O)Nc1c(-c2ccc(-c3ccc(Oc4ccccc4C(=O)O)cc3)cc2)oc2ccccc12)c1ccccc1 (single isomer, unassigned) [IT495] | > 500 | < 50 | 50 to 500
C[C@@H](OC(=O)Nc1c(-c2ccc(-c3cc(F)c(Oc4cccnc4C(=O)O)c(F)c3)cc2)cnn1C)c1ccccc1 [IT436] | < 50 | < 50 | 50 to 500
C[C@@H](OC(=O)Nc1c(-c2ccc(-c3ccc(Oc4ccccc4C(=O)O)c(F)c3)cc2)cnn1C)c1ccccc1 [IT446] | < 50 | < 50 | < 50

Compound | IC50 (LPA1 [1]) [nM] | EC50 (LPA/S1P GPCR of interest) [nM] | EC50 (LPA1 [2]) [nM]
Cc1nsc(-c2ccc(-c3cc(F)c(Oc4ccccc4C(=O)O)c(F)c3)cc2)c1NC(=O)O[C@H](C)c1ccccc1 [IT448] | 50 to 500 | < 50 | 50 to 500
C[C@@H](OC(=O)Nc1c(-c2cc3sc(-c4ccc(C5(C(=O)O)CC5)cc4F)cc3s2)cnn1C)c1ccccc1 [IT245] | 50 to 500 | < 50 | 50 to 500
Cc1noc(-c2ccc(-c3ccc(Oc4ncccc4C(=O)O)cc3)cc2)c1NC(=O)O[C@H](C)c1ccccc1 [IT199] | < 50 | < 50 | < 50
Cc1noc(-c2ccc(-c3ccc(OC4(C(=O)O)CC4)cc3)cc2)c1NC(=O)O[C@H](C)c1ccccc1 [IT197] | < 50 | < 50 | < 50
Cc1noc(-c2ccc(-c3ccc(Oc4cccnc4C(=O)O)cc3)cc2)c1NC(=O)O[C@H](C)c1ccccc1 [IT229] | 50 to 500 | < 50 | 50 to 500
Cc1noc(-c2ccc(-c3cc(F)c(Oc4nc5ccccc5cc4C(=O)O)c(F)c3)cc2)c1NC(=O)O[C@H](C)c1ccccc1 [IT481] | > 500 | < 50 | < 50
Cc1noc(-c2ccc(-c3ccc(C4(C(=O)O)CC4(F)F)cc3)cc2)c1NC(=O)O[C@H](C)c1ccccc1 (stereo partly drawn) [IT172] | 50 to 500 | < 50 | < 50
Cc1noc(-c2ccc(NC(=O)c3coc(C4(C(=O)O)CC4)c3)cc2)c1NC(=O)O[C@H](C)c1ccccc1 [IT224] | < 50 | < 50 | < 50
C[C@@H](OC(=O)Nc1c(-c2ccc(-c3cc(F)c(Oc4ncccc4C(=O)O)c(F)c3)cc2)cnn1C)c1ccccc1Cl [IT450] | 50 to 500 | < 50 | < 50
Cc1nsc(-c2ccc(-c3cc(F)c(Oc4ncccc4C(=O)O)c(F)c3)cc2)c1NC(=O)O[C@H](C)c1ccccc1 [IT451] | 50 to 500 | < 50 | < 50
C[C@@H](OC(=O)Nc1c(C#Cc2cc3sc(C4(c5nn[nH]n5)CC4)cc3s2)cnn1C)c1ccccc1 [IT104] | < 50 | < 50 | 50 to 500
Cc1noc(-c2ccc(-c3cc(F)c(Oc4ncccc4C(=O)O)c(F)c3)cc2)c1NC(=O)O[C@H](C)c1ccccc1 [IT258] | < 50 | < 50 | < 50
Cc1noc(-c2ccc(-c3cc(F)c(Oc4cccnc4C(=O)O)c(F)c3)cc2)c1NC(=O)O[C@H](C)c1ccccc1 [IT435] | < 50 | < 50 | < 50
Cc1noc(-c2ccc(-c3ccc(Oc4c(C(=O)O)n[nH]c4C)cc3)cc2)c1NC(=O)O[C@H](C)c1ccccc1 [IT485] | 50 to 500 | < 50 | < 50
C[C@@H](OC(=O)Nc1c(-c2ccc(-c3ccc(C4(C(=O)O)CC4)c4c3CCC4)cc2)cnn1C)c1ccccc1 [IT112] | < 50 | < 50 | 50 to 500
Cc1noc(-c2ccc(-c3ccc(C(F)(F)C(=O)O)cc3)cc2)c1NC(=O)O[C@H](C)c1ccccc1 [IT123] | 50 to 500 | < 50 | 50 to 500
C[C@@H](OC(=O)Nc1c(C#Cc2cc(F)c(Oc3ncccc3C(=O)O)c(F)c2)cnn1C)c1ccccc1 [IT303] | < 50 | 50 to 500 | 50 to 500
Cc1nnn(-c2ccc(-c3cc(F)c(Oc4ncccc4C(=O)O)c(F)c3)cc2)c1NC(=O)O[C@H](C)c1ccccc1 [IT307] | < 50 | < 50 | 50 to 500
